Measured values taken from patent US20220128542A1, “TREATMENT EFFICIENCY EVALUATION” (TX MEDIC AB, priority 2019, published 2022).

Tested on: brain of rats subjected to severe traumatic brain injury (sTBI)
Experiment: Ingenuity pathway analysis of differentially regulated genes after sTBI (canonical pathways, diseases and molecular functions; Example 4)
Design: species or system rat
Conditions: 2 days after TBI
Description: Pathway analysis of the differentially regulated genes was carried out using the Ingenuity pathway analysis package. The analysis was performed with special reference to pathways and molecular processes and diseases associated with neurodegenerative disease, including dementia, Alzheimer's disease, ALS, TBI and stroke, and with scarring and fibrosis, including glaucoma and normal pressure hydrocephalus (NPH) after subarachnoid haemorrhage.

[1] = TBI + 1 mg/kg LMW-DS relative to control

sodium salt of dextran sulfate [LMW-DS]
Abdominal cancer (disease/function), z score (TBI + 1 mg/kg LMW-DS): −1.538
Abdominal carcinoma (disease/function), z score (TBI + 1 mg/kg LMW-DS): −1.715
Abdominal neoplasm (disease/function), z score (TBI + 1 mg/kg LMW-DS): −0.154
Activation of blood cells (disease/function), z score (TBI + 1 mg/kg LMW-DS): 0.086
Activation of cells (disease/function), z score (TBI + 1 mg/kg LMW-DS): 0.836
Activation of leukocytes (disease/function), z score (TBI + 1 mg/kg LMW-DS): 0.086
Activation of lymphocytes (disease/function), z score (TBI + 1 mg/kg LMW-DS): −1.158
Adhesion of tumor cell lines (disease/function), z score (TBI + 1 mg/kg LMW-DS): 2.074
Apoptosis (disease/function), z score (TBI + 1 mg/kg LMW-DS): −0.337
Apoptosis of muscle cells (disease/function), z score (TBI + 1 mg/kg LMW-DS): 0.041
Behavior (disease/function), z score (TBI + 1 mg/kg LMW-DS): 1.334
Binding of tumor cell lines (disease/function), z score (TBI + 1 mg/kg LMW-DS): 2.397
Carcinoma (disease/function), z score (TBI + 1 mg/kg LMW-DS): −0.127
Cell death (disease/function), z score (TBI + 1 mg/kg LMW-DS): −0.793
Cell death of blood cells (disease/function), z score (TBI + 1 mg/kg LMW-DS): 1.082
Cell death of immune cells (disease/function), z score (TBI + 1 mg/kg LMW-DS): 1.001
Cell movement (disease/function), z score (TBI + 1 mg/kg LMW-DS): 1.948
Cell movement of muscle cells (disease/function), z score (TBI + 1 mg/kg LMW-DS): −0.26
Cell movement of vascular smooth muscle cells (disease/function), z score (TBI + 1 mg/kg LMW-DS): −0.588
Cell proliferation of T lymphocytes (disease/function), z score (TBI + 1 mg/kg LMW-DS): −1.097
Cellular homeostasis (disease/function), z score (TBI + 1 mg/kg LMW-DS): 0.19
Development of connective tissue cells (disease/function), z score (TBI + 1 mg/kg LMW-DS): −0.332
Differentiation of bone cells (disease/function), z score (TBI + 1 mg/kg LMW-DS): −0.341
Differentiation of connective tissue cells (disease/function), z score (TBI + 1 mg/kg LMW-DS): 0.73
Differentiation of hematopoietic progenitor cells (disease/function), z score (TBI + 1 mg/kg LMW-DS): 0.487
Differentiation of osteoclasts (disease/function), z score (TBI + 1 mg/kg LMW-DS): −0.223
Digestive organ tumor (disease/function), z score (TBI + 1 mg/kg LMW-DS): −0.604
Experimentally-induced arthritis (disease/function), z score (TBI + 1 mg/kg LMW-DS): −0.816
Extracranial solid tumor (disease/function), z score (TBI + 1 mg/kg LMW-DS): 0.056
Genital tumor (disease/function), z score (TBI + 1 mg/kg LMW-DS): 0.13
IL-1 Signaling canonical pathway, effect (TBI + 1 mg/kg LMW-DS): Inhibited
Incidence of tumor (disease/function), z score (TBI + 1 mg/kg LMW-DS): −1.131
Inflammation of absolute anatomical region (disease/function), z score (TBI + 1 mg/kg LMW-DS): −1.359
Inflammation of body cavity (disease/function), z score (TBI + 1 mg/kg LMW-DS): −1.757
Inflammation of joint (disease/function), z score (TBI + 1 mg/kg LMW-DS): −0.053
Inflammation of organ (disease/function), z score (TBI + 1 mg/kg LMW-DS): −1.295
Inflammatory response (disease/function), z score (TBI + 1 mg/kg LMW-DS): 1.159
Interaction of mononuclear leukocytes (disease/function), z score (TBI + 1 mg/kg LMW-DS): 1.626
Leukocyte migration (disease/function), z score (TBI + 1 mg/kg LMW-DS): 1.296
Leukopoiesis (disease/function), z score (TBI + 1 mg/kg LMW-DS): 1.185
Lymphopoiesis (disease/function), z score (TBI + 1 mg/kg LMW-DS): 0.583
Malignant solid tumor (disease/function), z score (TBI + 1 mg/kg LMW-DS): −0.562
Migration of cells (disease/function), z score (TBI + 1 mg/kg LMW-DS): 2.093
Necrosis (disease/function), z score (TBI + 1 mg/kg LMW-DS): −0.361
Non-hematologic malignant neoplasm (disease/function), z score (TBI + 1 mg/kg LMW-DS): −0.243
Osteoarthritis Pathway canonical pathway, effect (TBI + 1 mg/kg LMW-DS): Inhibited
Pelvic tumor (disease/function), z score (TBI + 1 mg/kg LMW-DS): −0.651
Proliferation of blood cells (disease/function), z score (TBI + 1 mg/kg LMW-DS): −1.083
Proliferation of lymphatic system cells (disease/function), z score (TBI + 1 mg/kg LMW-DS): −1.112
Proliferation of lymphocytes (disease/function), z score (TBI + 1 mg/kg LMW-DS): −0.852
Quantity of blood cells (disease/function), z score (TBI + 1 mg/kg LMW-DS): −1.479
Quantity of bone (disease/function), z score (TBI + 1 mg/kg LMW-DS): −1.985
Quantity of cells (disease/function), z score (TBI + 1 mg/kg LMW-DS): −0.765
Quantity of connective tissue cells (disease/function), z score (TBI + 1 mg/kg LMW-DS): 0.637
Quantity of leukocytes (disease/function), z score (TBI + 1 mg/kg LMW-DS): −1.163
Quantity of lymphatic system cells (disease/function), z score (TBI + 1 mg/kg LMW-DS): −0.701
Quantity of phagocytes (disease/function), z score (TBI + 1 mg/kg LMW-DS): −2.061
Rheumatic Disease (disease/function), z score (TBI + 1 mg/kg LMW-DS): −0.053
Role of NFAT in Regulation of the Immune Response canonical pathway, effect (TBI + 1 mg/kg LMW-DS): Activated
Solid tumor (disease/function), z score (TBI + 1 mg/kg LMW-DS): −0.186
Survival of organism (disease/function), z score (TBI + 1 mg/kg LMW-DS): −0.095
Synthesis of hormone (disease/function), z score (TBI + 1 mg/kg LMW-DS): 0.977
Thrombus (disease/function), z score (TBI + 1 mg/kg LMW-DS): 1
Transcription of RNA (disease/function), z score (TBI + 1 mg/kg LMW-DS): 1.519
Transport of molecule (disease/function), z score (TBI + 1 mg/kg LMW-DS): 2.421
IL-1 Signaling canonical pathway, z score [1]: −1
Osteoarthritis Pathway canonical pathway, z score [1]: −1.342
Role of NFAT in Regulation of the Immune Response canonical pathway, z score [1]: 0.378
Abdominal cancer (disease/function), z score (TBI + 5 mg/kg LMW-DS): −2.553
Abdominal carcinoma (disease/function), z score (TBI + 5 mg/kg LMW-DS): −2.631
Abdominal neoplasm (disease/function), z score (TBI + 5 mg/kg LMW-DS): −0.927
Adrenomedullin Signaling pathway canonical pathway, effect (TBI + 5 mg/kg LMW-DS): Inhibited
